pIC50: −log10 of the molar value.
Columns and labels:
[1] = tested on: human LINE-1; assay: Human LINE-1 (L1) retrotransposition dual-luciferase reporter assay in HeLa cells; type: cell-based; conditions: Homo sapiens, HeLa, 72 h, read-out: Human LINE-1 IC50 (Human L1 activity inhibition)
Outline: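 Compound dilution series (final DMSO 0.2%) added right after transfecting HeLa cells with the pYX017 L1 dual-luciferase reporter; 72 h culture at 37 °C, 5% CO2, triplicates. IC50 fitted by non-linear logistic regression to firefly-to-Renilla luminescence ratio (×10,000).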

[2] = tested on: cancer cell lines; assay: Cancer cell proliferation activity of representative nucleosides, CellTiterGlo 72 h (Example 7, Tables 8 and 9); type: cell-based; conditions: 72 h
Outline: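 Percent viability was set against 0.1% DMSO (100%) and 10 μM staurosporine (0%), with signal from CellTiterGlo luminescence. Dose-response treatment began one day after seeding and lasted 72 h at 37° C under 5% or 10% CO2, with 0.1% final DMSO.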

- pIC50 [1]: 7.68
- pIC50 ([2]; 72 h, 5637, bladder): 6.09
- pIC50 ([2]; CLS439, bladder): < 4.30
- pIC50 ([2]; HS729, muscle): < 4.30
- pIC50 ([2]; J82, bladder): 5.94
- pIC50 ([2]; JAR, placenta): 5.14
- pIC50 ([2]; MT3, breast): 5.84
- pIC50 ([2]; PC3, prostate): 5.20
- pIC50 ([2]; RD, muscle): 5.37
- pIC50 ([2]; T24, bladder): 5.42
- pIC50 ([2]; Homo sapiens, 22Rv1, 72 h, 22RV1, prostate): 6.26
- pIC50 ([2]; Homo sapiens, 786-0, 72 h, 786O, kidney): 5.45
- pIC50 ([2]; Homo sapiens, A204, 72 h, A204, muscle): 5.01
- pIC50 ([2]; Homo sapiens, A549, 72 h, A549, lung): 5.91
- pIC50 ([2]; Homo sapiens, A673, 72 h, A673, bone): 5.71
- pIC50 ([2]; Homo sapiens, A2780, 72 h, A2780, ovary): 5.38
- pIC50 ([2]; Homo sapiens, A-375, 72 h, A375, skin): < 4.30
- pIC50 ([2]; Homo sapiens, A-431, 72 h, A431, skin): 6.96
- pIC50 ([2]; Homo sapiens, ACHN, kidney): 5.98
- pIC50 ([2]; Homo sapiens, ASPC1, 72 h, ASPC1, pancreas): 5.59
- pIC50 ([2]; Homo sapiens, BT-20, 72 h, BT20, breast): < 4.30
- pIC50 ([2]; Homo sapiens, BXPC-3, 72 h, BXPC3, pancreas): 6.64
- pIC50 ([2]; Homo sapiens, C-33-A, C33A, endometrial): 5.34
- pIC50 ([2]; Homo sapiens, CAKI-1, 72 h, CAKI1, kidney): < 4.30
- pIC50 ([2]; Homo sapiens, COLO 205, 72 h, COLO205, colon): 6.04
- pIC50 ([2]; Homo sapiens, COLO-678, 72 h, COLO678, colon): < 4.30
- pIC50 ([2]; Homo sapiens, Ca-Ski, CASKI, endometrial): 4.94
- pIC50 ([2]; Homo sapiens, Caco-2, 72 h, CACO2, colon): < 4.30
- pIC50 ([2]; Homo sapiens, Calu-6, 72 h, CALU6, lung): < 4.30
- pIC50 ([2]; Homo sapiens, DLD-1, 72 h, DLD1, colon): 5.36
- pIC50 ([2]; Homo sapiens, DU-145, 72 h, DU145, prostate): 5.62
- pIC50 ([2]; Homo sapiens, EFO-21, 72 h, EFO21, ovary): 5.62
- pIC50 ([2]; Homo sapiens, EJ-28, 72 h, EJ28, bladder): 5.66
- pIC50 ([2]; Homo sapiens, Granta-519, 72 h, GRANTA-519, hematological): 5.49
- pIC50 ([2]; Homo sapiens, HCT-15, 72 h, HCT15, colon): 5.39
- pIC50 ([2]; Homo sapiens, HCT-116, 72 h, HCT116, colon): < 4.30
- pIC50 ([2]; Homo sapiens, HEK293, 72 h, HEK293, kidney): 5.12
- pIC50 ([2]; Homo sapiens, HL-60, 72 h, HL-60, hematological): 5.39
- pIC50 ([2]; Homo sapiens, HT-29, 72 h, HT29, colon): 5.83
- pIC50 ([2]; Homo sapiens, HT-1080, 72 h, HT1080, connective tissue): 5.54
- pIC50 ([2]; Homo sapiens, HeLa, endometrial): < 4.30
- pIC50 ([2]; Homo sapiens, HepG2, 72 h, HEPG2, liver): 5.80
- pIC50 ([2]; Homo sapiens, Hs-578T, HS578T, breast): < 4.30
- pIC50 ([2]; Homo sapiens, IGROV-1, 72 h, IGROV1, ovary): 5.30
- pIC50 ([2]; Homo sapiens, IMR-90, 72 h, IMR90, lung): < 4.30
- pIC50 ([2]; Homo sapiens, JEG-3, 72 h, JEG3, placenta): 6.00
- pIC50 ([2]; Homo sapiens, JIMT-1, 72 h, JIMT1, breast): 5.35
- pIC50 ([2]; Homo sapiens, K562, 72 h, K-562, hematological): 5.36
- pIC50 ([2]; Homo sapiens, Kasumi 1, 72 h, KASUMI-1, hematological): < 4.30
- pIC50 ([2]; Homo sapiens, L-363, 72 h, L-363, hematological): 5.71
- pIC50 ([2]; Homo sapiens, LoVo, colon): 5.79
- pIC50 ([2]; Homo sapiens, MCF7, 72 h, MCF7, breast): 5.92
- pIC50 ([2]; Homo sapiens, MDA-MB-231, 72 h, MDAMB231, breast): < 4.30
- pIC50 ([2]; Homo sapiens, MDA-MB-435, 72 h, MDAMB435, skin): 5.36
- pIC50 ([2]; Homo sapiens, MDA-MB-436, 72 h, MDAMB436, breast): 5.86
- pIC50 ([2]; Homo sapiens, MDA-MB-468, 72 h, MDAMB468, breast): < 4.30
- pIC50 ([2]; Homo sapiens, MG-63, 72 h, MG63, bone): 5.61
- pIC50 ([2]; Homo sapiens, MHH-ES-1, 72 h, MHHES1, bone): 5.82
- pIC50 ([2]; Homo sapiens, MIA PaCa-2, 72 h, MIAPACA2, pancreas): 5.43
- pIC50 ([2]; Homo sapiens, MINO, hematological): 5.43
- pIC50 ([2]; Homo sapiens, MV4-11, 72 h, MV4-11, hematological): 6.41
- pIC50 ([2]; Homo sapiens, NCI-H23, 72 h, NCI-H23, lung): 5.62
- pIC50 ([2]; Homo sapiens, NCI-H82, 72 h, NCIH82, lung): 5.63
- pIC50 ([2]; Homo sapiens, NCI-H292, 72 h, NCIH292, lung): < 4.30
- pIC50 ([2]; Homo sapiens, NCI-H460, 72 h, NCIH460, ung): 5.97
- pIC50 ([2]; Homo sapiens, OVCAR-3, 72 h, OVCAR3, ovary): 5.25
- pIC50 ([2]; Homo sapiens, OVCAR-4, 72 h, OVCAR4, ovary): < 4.30
- pIC50 ([2]; Homo sapiens, PANC-1, 72 h, PANC1, pancreas): 5.19
- pIC50 ([2]; Homo sapiens, PLC-PRF-5, 72 h, PLCPRF5, liver): 5.49
- pIC50 ([2]; Homo sapiens, Panc1005, 72 h, PANC1005, pancreas): 4.79
- pIC50 ([2]; Homo sapiens, Ramos, hematological): 5.28
- pIC50 ([2]; Homo sapiens, SAOS-2, 72 h, SAOS2, bone): 5.33
- pIC50 ([2]; Homo sapiens, SF-268, 72 h, SF268, brain): 5.78
- pIC50 ([2]; Homo sapiens, SF-295, 72 h, SF295, brain): 5.35
- pIC50 ([2]; Homo sapiens, SK-BR-3, 72 h, SKBR3, breast): 6.92
- pIC50 ([2]; Homo sapiens, SK-HEP1, 72 h, SKHEP1, liver): 5.89
- pIC50 ([2]; Homo sapiens, SK-LMS-1, 72 h, SKLMS1, uterus): 5.25
- pIC50 ([2]; Homo sapiens, SK-MEL-5, 72 h, SKMEL5, skin): 5.26
- pIC50 ([2]; Homo sapiens, SK-MEL-28, 72 h, SKMEL28, skin): < 4.30
- pIC50 ([2]; Homo sapiens, SK-N-AS, SKNAS, brain): < 4.30
- pIC50 ([2]; Homo sapiens, SK-N-SH, SKNSH, brain): 5.61
- pIC50 ([2]; Homo sapiens, SK-OV-3, 72 h, SKOV3, ovary): 5.79
- pIC50 ([2]; Homo sapiens, SNB-75, 72 h, SNB75, brain): < 4.30
- pIC50 ([2]; Homo sapiens, SU-DHL10, 72 h, SU-DHL-10, hematological): 5.50
- pIC50 ([2]; Homo sapiens, SU-DHL-6, 72 h, SU-DHL-6, hematological): 5.33
- pIC50 ([2]; Homo sapiens, SW-620, 72 h, SW620, colon): 6.04
- pIC50 ([2]; Homo sapiens, TE-671, 72 h, TE671, muscle): 5.23
- pIC50 ([2]; Homo sapiens, THP-1, 72 h, THP-1, hematological): 5.95
- pIC50 ([2]; Homo sapiens, U2OS, bone): < 4.30
- pIC50 ([2]; Homo sapiens, U-87 MG, U87MG, brain): 4.93
- pIC50 ([2]; Homo sapiens, UMUC3, 72 h, UMUC3, bladder): 5.47
- pIC50 ([2]; Homo sapiens, UO-31, 72 h, UO31, kidney): < 4.30
- pIC50 ([2]; Homo sapiens, WSU-NHL, hematological): 5.45
- pIC50 ([2]; NCI-H358M, NCIH358M, lung): < 4.30
- pIC50 ([2]; PBMC, hematological): < 4.30
- pIC50 ([2]; RD-ES, RDES, bone): 5.41
SMILES: C#C[C@]1(CO)O[C@@H](n2cc(F)c(N)nc2=O)C[C@@H]1O [compound 9]
